Values quoted from earlier work, collected in patent US8618345B2 (priority 2006, dated 2013).

Assays:
[1] = in vivo
[2] = ratio to inorganic arsenic (arsenic trioxide)

arsenic trioxide [inorganic arsenic, reference compound]
half life of a substance in the body (BHT) [1]: 28 h

C[As+](C)(C)CC(=O)[O-] [arsenobetaine]
demethylation if accumulated in the body [1]: no demethylation
half life of a substance in the body (BHT) [1]: 3.5 h
toxicity compared with that of inorganic arsenic (arsenic trioxide) [2]: approximately 1/300
